Results on one compound are retold here after patent US7449290B2, “Method for selecting genetically transformed cells” (Expressive Research B.V., priority 2001, dated 2008).

The subject of experiment [1] is non-transformed Arabidopsis thaliana Col.O seedlings. Description: Selection of transgenic Arabidopsis seedlings on trehalose medium. In kind it is in vivo. As to conditions: 100 mM trehalose, 1/2 MS agar, after 12 days at 22° C. How it is done:
Arabidopsis thaliana Col.O plants were transformed with Aarobacterium with the binary plasmid as described in Example 2C, via the “floral dip” protocol (Clough and Bent, supra). The obtained dry seeds were sterilized and sown on 0.8% w/v solid agar medium having therein half-strength MS-salts (½ MS-salts), vitamins and MES buffer pH 5.7, supplemented with trehalose in a final concentration of 100 mM. The dishes were incubated for 3 days at 4° C. (stratification), whereafter a drop of ethanol was applied to the inside of the cover and dishes were transferred to 22° C. […] The transformed resistant seedlings are green, have long roots and primary leaves. […] In moist conditions the cotyledons become pale.

Experiment [2] deals with Arabidopsis thaliana Col. O and La-er seedlings. The experiment can be described thus: Sensitivity to trehalose of Arabidopsis thaliana seedlings (Col.O and La-er) on agar medium. The settings on record: 100 mM trehalose in 0.8% agar, half-strength MS medium, pH 5.7; compared with 100 mM mannitol control. In kind it is in vivo. As to the method:
Seeds were sterilized using the gas-phase protocol of Clough and Bent (1998) (Clough S. J., Bent A. F., Plant J. 16(6): 735-743, 199.8) in Eppendorf tubes. The sterilized sees were then resuspended in sterile water and arranged on 0.8% w/v agar medium containing half-strength Murashigue and Skoog medium (MS medium; Murashigue T, Skoog F, Physiol. Plant. 15: 473-497, 1977), vitamins and MES buffer (pH 5.7), supplemented with mannitol or trehalose in a final concentration of 100 mM. […] The upper row of plants are the Arabidopsis thaliana Landsberg erecta (La-er), and the lower row of plants are the Arabidopsis thaliana Colombia (Col.O).

For `OC[C@H]1O[C@H](O[C@H]2O[C@H](CO)[C@@H](O)[C@H](O)[C@H]2O)[C@H](O)[C@@H](O)[C@@H]1O` [trehalose, Trehalose], in experiment [1], the “phenotype of non-transformed, sensitive seedlings” value was “accumulate anthocyanins, develop no primary leaves” and the “root length of non-transformed, sensitive seedlings” value is at most 3 mm. In experiment [2], the “development of plants from seeds (root system)” value is on record as “lesser development”.
